From patent publication US11136313B2, “Compounds, compositions, and methods for modulating CFTR” (Proteostasis Therapeutics, Inc., priority 2015, dated 2021)

These molecules were tested against T1, ΔF508-CFTR (Homo sapiens, UniProt P13569, DEL508-508) (assay: hBE equivalent current (Ieq) assay: AUC of equivalent chloride current after forskolin/VX-770 in primary lung epithelial cells homozygous for ΔF508). Conditions: relative to CFTR amplifier (Compound A)+VX-809 (3 uM), compound at 10 uM and Compound A at 3 uM, 24 h treatment.
T1 construct: Primary lung epithelial cells homozygous for the Cystic Fibrosis-causing ΔF508 mutation were differentiated for a minimum of 4 weeks; endogenous in cells; host or cells: primary lung epithelial cells (hBE) homozygous for ΔF508, differentiated at an air-liquid interface
T1 sequence (P13569 with tags, fused parts or gaps DEL508-508): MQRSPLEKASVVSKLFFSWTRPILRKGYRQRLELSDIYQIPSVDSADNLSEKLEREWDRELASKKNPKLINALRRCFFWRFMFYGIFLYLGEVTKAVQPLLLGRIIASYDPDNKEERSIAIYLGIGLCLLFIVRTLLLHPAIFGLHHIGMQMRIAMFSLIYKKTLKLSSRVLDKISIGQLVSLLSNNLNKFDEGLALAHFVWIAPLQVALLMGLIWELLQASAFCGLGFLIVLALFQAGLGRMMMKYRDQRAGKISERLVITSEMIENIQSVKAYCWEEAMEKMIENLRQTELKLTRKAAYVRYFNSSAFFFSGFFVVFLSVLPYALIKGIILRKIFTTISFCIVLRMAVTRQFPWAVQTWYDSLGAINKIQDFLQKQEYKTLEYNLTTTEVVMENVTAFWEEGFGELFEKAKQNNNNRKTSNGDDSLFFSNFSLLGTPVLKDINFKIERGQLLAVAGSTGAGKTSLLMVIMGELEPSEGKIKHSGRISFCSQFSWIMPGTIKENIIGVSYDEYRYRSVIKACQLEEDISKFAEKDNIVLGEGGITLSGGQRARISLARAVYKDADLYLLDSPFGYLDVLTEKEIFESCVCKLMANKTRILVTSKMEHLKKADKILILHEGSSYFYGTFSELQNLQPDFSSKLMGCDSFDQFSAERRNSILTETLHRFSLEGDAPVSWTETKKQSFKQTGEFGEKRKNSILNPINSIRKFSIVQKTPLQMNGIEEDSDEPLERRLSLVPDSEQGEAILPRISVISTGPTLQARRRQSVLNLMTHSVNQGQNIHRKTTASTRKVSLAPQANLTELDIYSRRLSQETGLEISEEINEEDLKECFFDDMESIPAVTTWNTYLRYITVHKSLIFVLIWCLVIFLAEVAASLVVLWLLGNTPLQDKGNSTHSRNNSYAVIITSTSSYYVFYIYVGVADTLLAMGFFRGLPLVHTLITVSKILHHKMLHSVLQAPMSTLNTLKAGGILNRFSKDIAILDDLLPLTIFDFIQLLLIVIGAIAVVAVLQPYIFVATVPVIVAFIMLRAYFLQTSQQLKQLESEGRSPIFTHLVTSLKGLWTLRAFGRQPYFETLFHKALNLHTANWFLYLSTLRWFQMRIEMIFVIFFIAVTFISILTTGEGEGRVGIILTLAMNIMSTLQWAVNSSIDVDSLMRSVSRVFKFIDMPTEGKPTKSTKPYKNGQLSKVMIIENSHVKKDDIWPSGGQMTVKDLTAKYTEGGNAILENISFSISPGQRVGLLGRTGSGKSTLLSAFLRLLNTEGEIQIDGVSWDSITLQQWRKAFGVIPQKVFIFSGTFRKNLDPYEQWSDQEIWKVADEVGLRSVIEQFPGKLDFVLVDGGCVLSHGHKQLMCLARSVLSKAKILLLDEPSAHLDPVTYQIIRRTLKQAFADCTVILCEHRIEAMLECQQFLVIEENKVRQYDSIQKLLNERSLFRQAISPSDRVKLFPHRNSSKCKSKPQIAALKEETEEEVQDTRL
Type: cell-based
How it was run: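 ΔF508/ΔF508 primary human bronchial epithelia, differentiated ≥4 weeks at air-liquid interface, treated basolaterally with compound for 24 h at 37 °C. Transepithelial voltage and conductance by 24-channel current clamp at 36 °C: benzamil, then forskolin plus VX-770 for 27 min, then bumetanide; AUC of equivalent chloride current over vehicle.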

Question: `Cc1c(-c2cc(C(=O)[O-])c3c(O[C@@H](C)c4ccc(S(C)(=O)=O)cc4)ccc(C)c3n2)oc2ccccc12.[Na+]` [Compound 230, Sodium 5-[(1S)-1-(4-methanesulfonylphenyl)ethoxy]-8-methyl-2-(3-methyl-1-benzofuran-2-yl)quinoline-4-carboxylate] was tested. Which Activity did it give?
Answer: The Activity was “++ (activity>50% of CFTR amplifier+VX-809 (3 uM) with compound at 10 uM and Compound A at 3 uM)”.

Question: `Cc1c(-c2cc(C(=O)[O-])c3c(O[C@H](C)c4ccc(C#N)cc4)ccc(C)c3n2)oc2ccccc12.[Na+]` [Compound 233] was tested. Which Activity did it give?
Answer: The Activity was “++ (activity>50% of CFTR amplifier+VX-809 (3 uM) with compound at 10 uM and Compound A at 3 uM)”.

Question: With `Cc1c(-c2cc(C(=O)[O-])c3c(O[C@@H](C)c4ccc(C#N)cc4)ccc(C)c3n2)oc2ccccc12.[Na+]` [Compound 234] as the molecule, how does the Activity read?
Answer: The Activity was “++ (activity>50% of CFTR amplifier+VX-809 (3 uM) with compound at 10 uM and Compound A at 3 uM)”.

Question: `Cc1c(-c2cc(C(=O)[O-])c3c(O[C@H](C)c4ccc(OC(F)F)cc4)ccc(C)c3n2)oc2ccccc12.[Na+]` [Compound 235] was tested. Which Activity did it give?
Answer: Its Activity is “++ (activity>50% of CFTR amplifier+VX-809 (3 uM) with compound at 10 uM and Compound A at 3 uM)”.

Question: `Cc1c(-c2cc(C(=O)[O-])c3c(O[C@@H](C)c4ccc(OC(F)F)cc4)ccc(C)c3n2)oc2ccccc12.[Na+]` [Compound 236] was tested. Which Activity did it give?
Answer: Its Activity is “++ (activity>50% of CFTR amplifier+VX-809 (3 uM) with compound at 10 uM and Compound A at 3 uM)”.

Question: With `Cc1c(-c2cc(C(=O)[O-])c3c(O[C@H](C)c4ccc(S(N)(=O)=O)cc4)ccc(C)c3n2)oc2ccccc12.[Na+]` [Compound 237, Sodium 8-Methyl-2-(3-methyl-1-benzofuran-2-yl)-5-[(1R)-1-(4-sulfamoylphenyl)ethoxy]quinoline-4-carboxylate] as the molecule, how does the Activity read?
Answer: Its Activity is “+ (activity<50% of an CFTR amplifier (Compound A)+VX-809 (3 uM) with compound at 10 uM and Compound A at 3 uM)”.

Question: For `Cc1c(-c2cc(C(=O)[O-])c3c(O[C@@H](C)c4ccc(S(N)(=O)=O)cc4)ccc(C)c3n2)oc2ccccc12.[Na+]` [Compound 238, Sodium 8-Methyl-2-(3-methyl-1-benzofuran-2-yl)-5-[(1S)-1-(4-sulfamoylphenyl)ethoxy]quinoline-4-carboxylate], which Activity is on record?
Answer: Its Activity is “++ (activity>50% of CFTR amplifier+VX-809 (3 uM) with compound at 10 uM and Compound A at 3 uM)”.

Question: `CNS(=O)(=O)c1ccc([C@@H](C)Oc2ccc(C)c3nc(-c4oc5ccccc5c4C)cc(C(=O)[O-])c23)cc1.[Na+]` [Compound 239, Sodium 8-Methyl-2-(3-methyl-l-benzofuran-2-yl)-5-[(1R)-1-[4-(methylsulfamoyl)phenyl]ethoxy]quinoline-4-carboxylate] was tested. Which Activity did it give?
Answer: The Activity was “++ (activity>50% of CFTR amplifier+VX-809 (3 uM) with compound at 10 uM and Compound A at 3 uM)”.

Question: For `CNS(=O)(=O)c1ccc([C@H](C)Oc2ccc(C)c3nc(-c4oc5ccccc5c4C)cc(C(=O)[O-])c23)cc1.[Na+]` [Compound 240, Sodium 8-Methyl-2-(3-methyl-1-benzofuran-2-yl)-5-[(1S)-1-[4-(methylsulfamoyl)phenyl]ethoxy]quinoline-4-carboxylate], which Activity is on record?
Answer: The Activity was “++ (activity>50% of CFTR amplifier+VX-809 (3 uM) with compound at 10 uM and Compound A at 3 uM)”.

Question: With `Cc1c(-c2cc(C(=O)[O-])c3c(O[C@@H](C)C4CCCCC4)ccc(C)c3n2)oc2ccccc12.[Na+]` [Compound 244] as the molecule, how does the Activity read?
Answer: Its Activity is “++ (activity>50% of CFTR amplifier+VX-809 (3 uM) with compound at 10 uM and Compound A at 3 uM)”.

Question: With `Cc1c(-c2cc(C(=O)[O-])c3c(O[C@H](C)C4CCOCC4)ccc(C)c3n2)oc2ccccc12.[Na+]` [Compound 245, Sodium 5-((1R)-1-(tetrahydro-2H-pyran-4-yl)ethoxy)-8-methyl-2-(3-methyl-1-benzofuran-2-yl)quinoline-4-carboxylate] as the molecule, how does the Activity read?
Answer: The Activity was “++ (activity>50% of CFTR amplifier+VX-809 (3 uM) with compound at 10 uM and Compound A at 3 uM)”.

Question: Which Activity does the source give for `Cc1c(-c2cc(C(=O)[O-])c3c(O[C@@H](C)C4CCOCC4)ccc(C)c3n2)oc2ccccc12.[Na+]` [Compound 246, Sodium 5-((1S)-1-(tetrahydro-2H-pyran-4-yl)ethoxy)-8-methyl-2-(3-methyl-1-benzofuran-2-yl)quinoline-4-carboxylate] here?
Answer: The Activity was “++ (activity>50% of CFTR amplifier+VX-809 (3 uM) with compound at 10 uM and Compound A at 3 uM)”.

Question: Which Activity does the source give for `Cc1c(-c2cc(C(=O)[O-])c3c(O[C@H](C)C4CCN(S(C)(=O)=O)CC4)ccc(C)c3n2)oc2ccccc12.[Na+]` [Compound 247, Sodium 5-[(1R)-1-(1-Methanesulfonylpiperidin-4-yl)ethoxy]-8-methyl-2-(3-methyl-1-benzofuran-2-yl)quinoline-4-carboxylate] here?
Answer: The Activity was “++ (activity>50% of CFTR amplifier+VX-809 (3 uM) with compound at 10 uM and Compound A at 3 uM)”.

Question: `Cc1c(-c2cc(C(=O)[O-])c3c(O[C@@H](C)C4CCN(S(C)(=O)=O)CC4)ccc(C)c3n2)oc2ccccc12.[Na+]` [Compound 248, Sodium 5-[(1S)-1-(1-Methanesulfonylpiperidin-4-yl)ethoxy]-8-methyl-2-(3-methyl-1-benzofuran-2-yl)quinoline-4-carboxylate] was tested. Which Activity did it give?
Answer: Its Activity is “++ (activity>50% of CFTR amplifier+VX-809 (3 uM) with compound at 10 uM and Compound A at 3 uM)”.

Question: `Cc1c(-c2cc(C(=O)[O-])c3c(O[C@@H]4CCc5ccccc5C4)ccc(C)c3n2)oc2ccccc12.[Na+]` [Compound 249] was tested. Which Activity did it give?
Answer: The Activity was “++ (activity>50% of CFTR amplifier+VX-809 (3 uM) with compound at 10 uM and Compound A at 3 uM)”.

Question: How did the Activity turn out when `Cc1c(-c2cc(C(=O)[O-])c3c(O[C@H]4CCc5ccccc5C4)ccc(C)c3n2)oc2ccccc12.[Na+]` [Compound 253] was run?
Answer: The Activity was “++ (activity>50% of CFTR amplifier+VX-809 (3 uM) with compound at 10 uM and Compound A at 3 uM)”.

Question: Which Activity does the source give for `Cc1c(-c2cc(C(=O)[O-])c3c(O[C@H](C)c4ccn5nccc5c4)ccc(C)c3n2)oc2ccccc12.[Na+]` [Compound 257, Sodium 8-Methyl-2-((1R)-3-methyl-1-benzofuran-2-yl)-5-(1-[pyrazolo[1,5-a]pyridin-5-yl]ethoxy)quinoline-4-carboxylate] here?
Answer: The Activity was “++ (activity>50% of CFTR amplifier+VX-809 (3 uM) with compound at 10 uM and Compound A at 3 uM)”.

Question: `Cc1c(-c2cc(C(=O)[O-])c3c(O[C@@H](C)c4ccn5nccc5c4)ccc(C)c3n2)oc2ccccc12.[Na+]` [Compound 258, Sodium 8-Methyl-2-((1S)-3-methyl-1-benzofuran-2-yl)-5-(1-[pyrazolo[1,5-a]pyridin-5-yl]ethoxy)quinoline-4-carboxylate] was tested. Which Activity did it give?
Answer: The Activity was “++ (activity>50% of CFTR amplifier+VX-809 (3 uM) with compound at 10 uM and Compound A at 3 uM)”.

Question: For `Cc1c(-c2cc(C(=O)[O-])c3c(OCc4ccc(S(C)(=O)=O)cc4)ccc(C)c3n2)oc2ccccc12.[Na+]` [Compound 263], which Activity is on record?
Answer: The Activity was “++ (activity>50% of CFTR amplifier+VX-809 (3 uM) with compound at 10 uM and Compound A at 3 uM)”.

Question: How did the Activity turn out when `Cc1c(-c2cc(C(=O)[O-])c3c(OCc4ccc(S(C)(=O)=O)cc4)ccc(C)c3n2)sc2ccccc12.[Na+]` [Compound 264] was run?
Answer: Its Activity is “++ (activity>50% of CFTR amplifier+VX-809 (3 uM) with compound at 10 uM and Compound A at 3 uM)”.

Question: How did the Activity turn out when `Cc1c(-c2cc(C(=O)[O-])c3c(O[C@H](C)c4ccc(S(C)(=O)=O)cc4)ccc(C)c3n2)sc2ccccc12.[Na+]` [Compound 265] was run?
Answer: Its Activity is “++ (activity>50% of CFTR amplifier+VX-809 (3 uM) with compound at 10 uM and Compound A at 3 uM)”.

Question: How did the Activity turn out when `Cc1c(-c2cc(C(=O)[O-])c3c(O[C@@H](C)c4ccc(S(C)(=O)=O)cc4)ccc(C)c3n2)sc2ccccc12.[Na+]` [Compound 266] was run?
Answer: The Activity was “++ (activity>50% of CFTR amplifier+VX-809 (3 uM) with compound at 10 uM and Compound A at 3 uM)”.
